The values that follow come from PubChem BioAssay (NCI).

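Following 48 hours of exposure in 96-well plates, responses at five concentrations were used to interpolate endpoints linearly. At the TGI there is no net growth.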

Some test systems named below: HCT-15 colon; HCC-2998 colon; NCI-H460 lung; A549 NSCLC; NCI-H226 lung; RXF 393 renal; SK-OV-3 ovarian; MOLT-4 leukemia; SF-268 CNS; RPMI-8226 leukemia.
Common to all, as to assay: inhibition of tumour cell growth, NCI panel, 48 h

As for `COc1cccc(/C=N/n2c(Cc3ccc(Cl)cc3)n[nH]c2=O)c1`, the TGI was over 100 µM in the assay with HCT-15 colon; over 100 µM in the assay on HCC-2998 colon; over 100 µM with NCI-H460 lung; over 100 µM in the assay with A549 NSCLC; over 72.3 µM with NCI-H226 lung; 11.2 µM in the assay on RXF 393 renal. In addition, the TGI is 81.9 µM in the assay on SK-OV-3 ovarian, over 100 µM in the assay with MOLT-4 leukemia, 34.9 µM in the assay with SF-268 CNS and over 100 µM in the assay with RPMI-8226 leukemia.
Take `Cc1nc2ccccc2cc1C[N+]12CN3CN(CN(C3)C1)C2`: the TGI with HCT-15 colon was 47 µM; in the assay with HCC-2998 colon, 30.8 µM; in the assay with NCI-H460 lung, 45.1 µM; in the assay with A549 NSCLC, over 100 µM; in the assay on NCI-H226 lung it was 52.8 µM; in the assay on RXF 393 renal it was 40.4 µM. Further, the TGI in the assay on SK-OV-3 ovarian was 98.9 µM; in the assay on MOLT-4 leukemia, over 100 µM; with SF-268 CNS it was 51 µM; in the assay on RPMI-8226 leukemia, over 100 µM.
Take `COc1cnnc2c(C)c(-c3ccccc3)nn12`: the TGI in the assay with HCT-15 colon, in the assay on HCC-2998 colon, in the assay with NCI-H460 lung, in the assay with A549 NSCLC, in the assay with NCI-H226 lung and in the assay on RXF 393 renal was over 100 µM each time. In addition, the TGI in the assay with SK-OV-3 ovarian, in the assay on MOLT-4 leukemia, in the assay with SF-268 CNS and in the assay with RPMI-8226 leukemia was over 100 µM throughout.
With `O=[N+]([O-])c1cc(Cl)ccc1S(=O)(=O)c1cc(Cl)cc2c1NCCC2`, the TGI in the assay on HCT-15 colon, in the assay on HCC-2998 colon, with NCI-H460 lung, in the assay on A549 NSCLC, in the assay on NCI-H226 lung and with RXF 393 renal was over 100 µM in each case. Also, the TGI in the assay on SK-OV-3 ovarian, in the assay with MOLT-4 leukemia, in the assay on SF-268 CNS and in the assay on RPMI-8226 leukemia was over 100 µM each time.
Consider `Cc1nc(N)nc(N)c1N1CCN(Cc2ccccc2)CC1`, for which the TGI in the assay on HCT-15 colon, with HCC-2998 colon, with NCI-H460 lung, in the assay on A549 NSCLC, with NCI-H226 lung and in the assay on RXF 393 renal was over 100 µM each time. Further, the TGI in the assay on SK-OV-3 ovarian was over 100 µM; in the assay on MOLT-4 leukemia, over 100 µM; in the assay with SF-268 CNS, over 100 µM; in the assay on RPMI-8226 leukemia, over 95.6 µM.
With `CCCC1C(C#N)(C#N)C(C#N)=C(N)C1(C)C(C)=O` (stereo unspecified), the TGI with HCT-15 colon, with HCC-2998 colon, in the assay on A549 NSCLC, in the assay with NCI-H226 lung, in the assay with RXF 393 renal and in the assay on SK-OV-3 ovarian was over 100 µM throughout. For the same compound, the TGI in the assay on MOLT-4 leukemia, in the assay on SF-268 CNS and in the assay with RPMI-8226 leukemia was over 100 µM in each case.
For `Nc1ccc(-c2nc3cc(F)ccc3s2)cc1`, the TGI in the assay with HCT-15 colon was over 85.7 µM; in the assay on HCC-2998 colon, over 100 µM; in the assay with NCI-H460 lung, over 100 µM; in the assay with A549 NSCLC it was over 100 µM; in the assay with NCI-H226 lung, over 100 µM; in the assay on RXF 393 renal it was over 100 µM. For the same compound, the TGI in the assay on SK-OV-3 ovarian, in the assay with MOLT-4 leukemia, in the assay on SF-268 CNS and in the assay on RPMI-8226 leukemia was over 100 µM throughout.
On to `Cc1ccsc1/C=N/Nc1ccccn1`, for which the TGI in the assay with HCT-15 colon, with HCC-2998 colon, with A549 NSCLC, in the assay with NCI-H226 lung, in the assay on RXF 393 renal and in the assay with SK-OV-3 ovarian was over 100 µM each time. The values for the TGI with MOLT-4 leukemia, in the assay on SF-268 CNS and in the assay on RPMI-8226 leukemia were 73.9 µM, over 100 µM and 56.6 µM, respectively.
Regarding `CC(CN(C)C)C(=O)/C=C/c1ccc(Cl)c(Cl)c1` (stereo unspecified), the TGI in the assay on HCC-2998 colon turned out to be 3.48 µM; in the assay with NCI-H460 lung, 5.2 µM; in the assay on A549 NSCLC it was 13.8 µM; in the assay with NCI-H226 lung, 5.57 µM; with RXF 393 renal, 40.8 µM; in the assay on SK-OV-3 ovarian it was 17.5 µM. Moreover, the TGI with MOLT-4 leukemia was over 100 µM; in the assay on SF-268 CNS, 4.14 µM; with RPMI-8226 leukemia, over 100 µM.
For `O=C(NC(CO)CO)c1ccc2cc(C(=O)N3CC(CCl)c4ccc([N+](=O)[O-])cc43)[nH]c2c1` (stereo unspecified), the TGI in the assay with HCT-15 colon, in the assay on HCC-2998 colon, with NCI-H460 lung, with A549 NSCLC, in the assay with NCI-H226 lung and in the assay on RXF 393 renal was over 100 µM in each case. Further, the TGI in the assay with SK-OV-3 ovarian, in the assay with MOLT-4 leukemia and in the assay with SF-268 CNS was over 100 µM each time.
`C/C(=N\NC(=O)N/N=C(\C)c1ccccn1)c1ccccn1`: the TGI in the assay with HCT-15 colon, in the assay on HCC-2998 colon, in the assay on NCI-H460 lung, in the assay with A549 NSCLC, in the assay on NCI-H226 lung and in the assay on RXF 393 renal was over 100 µM each time. Moreover, the TGI in the assay on SK-OV-3 ovarian is over 100 µM; in the assay with MOLT-4 leukemia it was over 100 µM; in the assay with SF-268 CNS, over 83.9 µM; with RPMI-8226 leukemia, over 100 µM.
In the case of `CC(C)C(/C=C/c1ccccc1)=N\NC(=S)NN`, the TGI in the assay on HCT-15 colon, in the assay on HCC-2998 colon, in the assay on NCI-H460 lung, in the assay with A549 NSCLC, in the assay on NCI-H226 lung and in the assay on RXF 393 renal was over 100 µM in each case. Besides, the TGI with SK-OV-3 ovarian, in the assay with MOLT-4 leukemia, in the assay on SF-268 CNS and in the assay with RPMI-8226 leukemia was over 100 µM each time.
As to `COc1cc(C2c3cc4c(cc3OC(N3CCOCC3)C2C)OCO4)cc(OC)c1OC(C)=O` (stereo unspecified), the TGI in the assay on HCT-15 colon was over 100 µM; with HCC-2998 colon, 50.5 µM; with NCI-H460 lung, over 100 µM; in the assay on A549 NSCLC, over 100 µM; in the assay with NCI-H226 lung, 62.7 µM; in the assay with RXF 393 renal it was over 62.1 µM. The TGI in the assay with SK-OV-3 ovarian, with MOLT-4 leukemia, in the assay on SF-268 CNS and in the assay on RPMI-8226 leukemia was over 100 µM in each case.
Take `O=Cc1cc(O)c(O)c(/C=N/n2c3ccccc3c3ccccc32)c1`: the TGI is 19.4 µM in the assay with HCT-15 colon; 30.9 µM in the assay on HCC-2998 colon; 36.7 µM with NCI-H460 lung; over 100 µM in the assay with A549 NSCLC; 33.2 µM in the assay on NCI-H226 lung; 23.5 µM in the assay on RXF 393 renal. Besides, the TGI with SK-OV-3 ovarian came to 21.1 µM; in the assay with MOLT-4 leukemia, 12.5 µM; with SF-268 CNS it was 20 µM; in the assay with RPMI-8226 leukemia, 6.49 µM.
